Here are results for 18 compounds from patent publication US20220267277A1, “DOPAMINE RECEPTOR D1 AGONISTS AND METHODS OF USE” (Sanford Burnham Prebys Medical Discovery Institute, priority 2019, published 2022).

pEC50, pIC50: −log10 of the molar value. Read-outs that look alike come from different tables or passages of the source.

Test [1] has as its system Col1a1. The following applies: 10 μM; precision cut lung slices cultured for 3 days; aged mice (24 months) injured with bleomycin.
Test [2] concerns YAP/TAZ nuclear localization in human lung fibroblasts. The experiment in a line: YAP/TAZ nuclear localization in human lung fibroblasts (FIG. 1).
Test [3] has as its target T1, DR1 (Homo sapiens, UniProt P21728).
T1 construct: endogenous in cells; host or cells: IPF patient derived fibroblasts
Kind of test: DR1 agonism EC50 (Example B-1, Table 4). It counts as cell-based. How it is done: cAMP Assay: IPF patient derived fibroblasts are plated in EMEM containing 10% FBS overnight. […] Twenty minutes prior to cell lysis the media is removed and cells are treated with “induction buffer” containing nonselective phosphodiesterase inhibitors and the indicated concentration of compound(s). Luminescence is measured on a Flexstation 3 (Molecular Devices) plate reader.
(§1) Example B-1: Enzyme Assay of Inhibition of YAP/TAZ and DR1

Test [4] relates to YAP/TAZ. Kind of test: Inhibition of YAP/TAZ (Example B-1, Table 4). It counts as cell-based.
From the text: as §1

T1 sequence (P21728 whole entry): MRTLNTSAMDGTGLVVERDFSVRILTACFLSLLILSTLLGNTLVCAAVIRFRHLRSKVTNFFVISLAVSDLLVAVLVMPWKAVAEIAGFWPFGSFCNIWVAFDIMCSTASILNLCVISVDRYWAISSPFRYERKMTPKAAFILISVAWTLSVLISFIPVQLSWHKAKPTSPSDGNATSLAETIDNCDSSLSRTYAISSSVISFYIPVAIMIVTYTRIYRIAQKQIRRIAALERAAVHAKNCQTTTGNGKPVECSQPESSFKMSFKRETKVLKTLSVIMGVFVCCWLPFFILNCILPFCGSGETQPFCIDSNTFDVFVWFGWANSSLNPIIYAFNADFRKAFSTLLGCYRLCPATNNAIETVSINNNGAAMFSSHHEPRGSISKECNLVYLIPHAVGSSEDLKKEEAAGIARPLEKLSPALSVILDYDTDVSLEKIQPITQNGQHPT

As to `Cc1cc2c(cc1O)CN[C@H]1CCc3cc(O)c(O)cc3[C@H]21` (relative stereo) [Compound 3, Trans-(6a,12b)-2-methyl-5,6,6a,7,8,12b-hexahydro-benzo[a]phenanthridine-3,10,11-triol], the “expression of Col1a1” value in test [1] was “inhibits expression of Col1a1”. Also, the “inhibition of YAP/TAZ nuclear localization” value in test [2] is “inhibit YAP/TAZ nuclear localization”.

Take `COc1c(O)cc(C2CNCc3sccc32)cc1Cl` (centres unmarked) [3-chloro-2-methoxy-5-(4,5,6,7-tetrahydrothieno[2,3-c]pyridin-4-yl)phenol]: in test [3] (read-out: DR1 EC50), the pEC50 (usually the negative decadic logarithm of the EC50, by convention in mol/L) was 4.70 to 6.00. Moreover, in test [4], the pIC50 (commonly the IC50 on a negative log10 scale, so that one unit is a factor of ten) is 4.70 to 6.00.

As for `Oc1cc(C2CNCc3sccc32)cc(Cl)c1O` (centres unmarked) [3-chloro-5-(4,5,6,7-tetrahydrothieno[2,3-c]pyridin-4-yl)benzene-1,2-diol], the pEC50 in test [3] (read-out: DR1 EC50) was greater than 6.00. In test [4], this compound had a pIC50 of 4.70 to 6.00.

Consider `Oc1ccc(C2CNCc3cnccc32)cc1O` (centres unmarked) [4-(1,2,3,4-tetrahydro-2,7-naphthyridin-4-yl)benzene-1,2-diol], for which, in test [4], the pIC50 was 4.70 to 6.00.

For the compound `CCCc1csc2c1C(c1ccc(OC)c(OC)c1)CNC2` (centres unmarked) [4-(3,4-dimethoxyphenyl)-3-propyl-4,5,6,7-tetrahydrothieno[2,3-c]pyridine], the pEC50 in test [3] (read-out: DR1 EC50) is 4.70 to 6.00. The same compound gave a pIC50 in test [4] of 4.70 to 6.00.

Take `COc1ccc(C2CNCc3sccc32)cc1OC` (centres unmarked) [4-(3,4-dimethoxyphenyl)-4,5,6,7-tetrahydrothieno[2,3-c]pyridine]: in test [3] (read-out: DR1 EC50), the pEC50 is 4.70 to 6.00. The compound also gave a pIC50 in test [4] of 4.70 to 6.00.

On to `COc1cc(C2CNCc3sccc32)cc(Cl)c1OC` (centres unmarked) [4-(3-chloro-4,5-dimethoxyphenyl)-4,5,6,7-tetrahydrothieno[2,3-c]pyridine], for which the pEC50 in test [3] (read-out: DR1 EC50) is 4.70 to 6.00. Also, the pIC50 in test [4] is 4.70 to 6.00.

On to `CCCc1csc2c1C(c1ccc(O)c(O)c1)CNC2` (centres unmarked) [4-(3-propyl-4,5,6,7-tetrahydrothieno[2,3-c]pyridin-4-yl)benzene-1,2-diol], for which the pEC50 in test [3] (read-out: DR1 EC50) is 4.70 to 6.00. The compound further showed a pIC50 in test [4] of 4.70 to 6.00.

For `CN1Cc2sccc2C(c2ccc(O)c(O)c2)C1` (centres unmarked) [4-(6-methyl-4,5,6,7-tetrahydrothieno[2,3-c]pyridin-4-yl)benzene-1,2-diol], the pEC50 in test [3] (read-out: DR1 EC50) is 4.70 to 6.00. The same compound showed a pIC50 in test [4] of 4.70 to 6.00.

For `Oc1cc2c(cc1O)[C@@H]1c3ccc(O)c(O)c3CN[C@@H]1CC2` [(6aR,12bR)-5,6,6a,7,8,12b-hexahydrobenzo[a]phenanthridine-3,4,10,11-tetraol], in test [4], the pIC50 is 4.70 to 6.00.

In the case of `Oc1ccc2c(c1)[C@@H]1c3cc(O)c(O)cc3CC[C@H]1NC2` [(6aR,12bS)-5,6,6a,7,8,12b-hexahydrobenzo[a]phenanthridine-2,10,11-triol], in test [3], the pEC50 is greater than 6.00. In addition, the pIC50 in test [4] is 4.70 to 6.00.

As for `Oc1cc2c(cc1O)[C@H]1c3ccc(O)c(O)c3CN[C@@H]1CC2` [(6aR,12bS)-5,6,6a,7,8,12b-hexahydrobenzo[a]phenanthridine-3,4,10,11-tetraol], the pIC50 in test [4] is 4.70 to 6.00.

In test [3], `Cc1cc2c(cc1O)CN[C@H]1CCc3cc(O)c(O)cc3[C@H]21` [(6aS,12bR)-2-methyl-5,6,6a,7,8,12b-hexahydrobenzo[a]phenanthridine-3,10,11-triol] showed a pEC50 greater than 6.00. The compound further had a pIC50 in test [4] of 4.70 to 6.00.

On to `CCCc1csc2c1[C@@H](c1ccc(O)c(O)c1)CNC2` [(R)-4-(3-propyl-4,5,6,7-tetrahydrothieno[2,3-c]pyridin-4-yl)benzene-1,2-diol], for which the pEC50 in test [3] (read-out: DR1 EC50) is 4.70 to 6.00. Moreover, the pIC50 in test [4] is 4.70 to 6.00.

On to `Oc1ccc([C@H]2CNCc3sccc32)cc1O` [(R)-4-(4,5,6,7-tetrahydrothieno[2,3-c]pyridin-4-yl)benzene-1,2-diol], for which the pEC50 in test [3] (read-out: DR1 EC50) was greater than 6.00. The pIC50 in test [4] is 4.70 to 6.00.

Turning to `CCCc1csc2c1[C@H](c1ccc(O)c(O)c1)CNC2` [(S)-4-(3-propyl-4,5,6,7-tetrahydrothieno[2,3-c]pyridin-4-yl)benzene-1,2-diol], in test [3] (read-out: DR1 EC50), the pEC50 was 4.70 to 6.00. This compound gave a pIC50 in test [4] of 4.70 to 6.00.

Take `Oc1ccc([C@@H]2CNCc3sccc32)cc1O` [(S)-4-(4,5,6,7-tetrahydrothieno[2,3-c]pyridin-4-yl)benzene-1,2-diol]: the pEC50 in test [3] (read-out: DR1 EC50) was greater than 6.00. In test [4], this compound gave a pIC50 of 4.70 to 6.00.

In the case of “(6aR,12bS)-10,11-dimethoxy-2-methyl-5,6,6a,7,8,12b-hexahydrobenzo[a]phenanthridin-3-ol [Compound 4a]”, in test [2], the “inhibition of YAP/TAZ nuclear localization” value is “inhibit YAP/TAZ nuclear localization”.
